Test results published in patent publication US12673975B2, “Cyclic peptide, cell scaffold material, cell separating material, and medium” (FUJIFILM Corporation, priority 2019, dated 2026).
Starred links: 1 amine or outer side, 2 acyl side, 3 side chain; linkers in the order of their positions; H or OH if unused. Positions of bridges follow the written chain, without caps; N, C: chain ends. Non-standard residues stand in square brackets, D forms with d. Residues, ends and D or L forms follow the SMILES beside them. hCys = N[C@@H](CCS)C(=O)O; Dab = NCC[C@H](N)C(=O)O; X2 = O=C(C[*:1])[*:2]

Tests used:
[1] = Evaluation of molecule stability (alkali treatment, residual rate by LC/MS); type: physicochemical; conditions: 500 μM peptide aqueous solution plus equivalent of 1 M sodium hydroxide, 15° C., 3 hours, LC/MS peak area
In short: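 500 μM aqueous cyclic peptide mixed with an equal volume of 1 M NaOH and held 3 h at 15 °C. Residual rate is total LC/MS peak area after treatment relative to untreated (100%), using a C18 column, pH 3 ammonium formate/acetonitrile gradient, 45 °C, ESI±.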

human integrin αvβ5 = human integrin αvβ5 (Homo sapiens, UniProt P06756+P18084); experiment: Evaluation of integrin binding property (surface plasmon resonance, Biacore 3000, immobilized cyclic peptide); conditions: SPR, 25° C., HEPES buffer with 5 mM magnesium chloride, integrin 30-1,000 nM; read-out: Performance evaluation: Binding activity (dissociation constant between the cyclic peptide and human integrin αvβ5)
human integrin αvβ5, sequence (P06756 31-1048): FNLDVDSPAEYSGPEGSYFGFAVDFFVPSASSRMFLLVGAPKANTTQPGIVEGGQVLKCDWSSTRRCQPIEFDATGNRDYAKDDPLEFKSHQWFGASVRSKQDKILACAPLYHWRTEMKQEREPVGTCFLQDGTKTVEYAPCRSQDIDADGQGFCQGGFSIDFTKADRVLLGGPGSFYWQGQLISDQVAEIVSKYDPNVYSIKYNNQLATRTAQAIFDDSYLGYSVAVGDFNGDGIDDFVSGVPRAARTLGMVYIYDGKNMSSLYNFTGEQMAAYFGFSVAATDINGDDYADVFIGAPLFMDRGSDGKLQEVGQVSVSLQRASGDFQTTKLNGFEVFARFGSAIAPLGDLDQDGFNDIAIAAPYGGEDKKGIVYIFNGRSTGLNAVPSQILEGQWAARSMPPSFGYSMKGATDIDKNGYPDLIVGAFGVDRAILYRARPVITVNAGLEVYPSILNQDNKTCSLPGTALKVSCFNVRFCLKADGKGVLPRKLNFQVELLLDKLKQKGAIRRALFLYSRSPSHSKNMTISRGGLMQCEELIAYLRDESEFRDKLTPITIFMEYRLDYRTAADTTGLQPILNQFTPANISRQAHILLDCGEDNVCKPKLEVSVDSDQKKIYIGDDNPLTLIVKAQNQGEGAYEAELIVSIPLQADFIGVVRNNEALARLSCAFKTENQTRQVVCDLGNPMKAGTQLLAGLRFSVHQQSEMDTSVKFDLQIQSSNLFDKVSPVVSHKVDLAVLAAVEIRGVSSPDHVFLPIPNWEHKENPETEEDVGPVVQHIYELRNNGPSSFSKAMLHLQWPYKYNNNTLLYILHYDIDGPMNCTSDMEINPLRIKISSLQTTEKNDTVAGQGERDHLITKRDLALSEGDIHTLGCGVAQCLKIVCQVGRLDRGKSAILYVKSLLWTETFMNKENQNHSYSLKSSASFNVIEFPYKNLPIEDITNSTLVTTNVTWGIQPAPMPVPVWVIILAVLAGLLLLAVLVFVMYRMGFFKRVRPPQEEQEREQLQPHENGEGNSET
human integrin αvβ5, sequence (P18084 24-799): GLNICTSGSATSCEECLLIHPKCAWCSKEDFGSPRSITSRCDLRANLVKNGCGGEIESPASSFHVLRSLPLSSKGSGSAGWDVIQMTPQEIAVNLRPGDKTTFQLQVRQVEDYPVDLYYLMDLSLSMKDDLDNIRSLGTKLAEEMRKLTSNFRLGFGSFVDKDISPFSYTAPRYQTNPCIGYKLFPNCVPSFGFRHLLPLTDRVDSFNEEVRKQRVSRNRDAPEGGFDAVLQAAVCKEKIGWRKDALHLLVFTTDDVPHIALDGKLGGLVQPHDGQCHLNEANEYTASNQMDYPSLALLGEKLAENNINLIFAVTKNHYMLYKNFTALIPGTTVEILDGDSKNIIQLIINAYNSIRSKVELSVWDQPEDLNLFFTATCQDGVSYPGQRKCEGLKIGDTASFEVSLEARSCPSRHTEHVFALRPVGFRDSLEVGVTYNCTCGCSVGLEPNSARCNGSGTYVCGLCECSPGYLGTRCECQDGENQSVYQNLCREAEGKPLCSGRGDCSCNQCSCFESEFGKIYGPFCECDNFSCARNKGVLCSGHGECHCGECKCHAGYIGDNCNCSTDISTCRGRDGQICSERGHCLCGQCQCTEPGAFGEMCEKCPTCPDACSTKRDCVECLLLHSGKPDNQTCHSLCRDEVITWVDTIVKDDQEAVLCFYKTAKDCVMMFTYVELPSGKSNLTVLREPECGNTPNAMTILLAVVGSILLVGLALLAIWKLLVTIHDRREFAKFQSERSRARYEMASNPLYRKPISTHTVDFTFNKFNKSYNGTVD
In short: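 SPR with cyclic peptide amine-coupled via EDC/NHS to a CM5 chip, blank channel as reference. Integrin αvβ5 at 30, 100, 300 and 1,000 nM injected 10 min at 25 °C in HEPES buffer pH 7.4 with 5 mM MgCl2, 30 min buffer flow, EDTA regeneration; Kd from reference-subtracted signals, graded by category.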

| Structure (SMILES) | Performance evaluation: Stability (residual rate of cyclic peptide after alkali treatment) [1] | Kd (human integrin αvβ5) [µM] |
| --- | --- | --- |
| C[C@H](NC(=O)[C@H](CCCCN)NC(=O)[C@H](CCCCN)NC(=O)[C@@H](N)CCCCN)C(=O)N[C@H]1CCSCC(=O)NCC[C@@H](C(=O)N[C@@H](CC(=O)O)C(=O)O)NC(=O)[C@H](CCC(=O)O)NC(=O)[C@H](Cc2ccc(O)cc2)NC(=O)[C@H](CC(N)=O)NC(=O)[C@H](CC(=O)O)NC(=O)CNC(=O)[C@H](CCCNC(=N)N)NC(=O)[C@@H]2CCCN2C(=O)[C@H](CCC(=O)O)NC1=O [Cyclic peptide 36, KKKA-(Hcy)-EPRGDNYE(Dab(acetyl))D] (H-KKKA[hCys]EPRGDNYE[Dab]D-OH; linker 5-14 via X2) | A (The residual rate of the cyclic peptide is 70% or more.) | 0.05 to 0.1 |
| CC[C@H](C)[C@@H]1NC(=O)[C@@H](NC(=O)[C@H](C)NC(=O)[C@H](CCCCN)NC(=O)[C@H](CCCCN)NC(=O)[C@@H](N)CCCCN)CCSCC(=O)NCC[C@@H](C(=O)N[C@@H](C)C(=O)O)NC(=O)[C@H](CCCNC(=N)N)NC(=O)[C@H](Cc2ccccc2)NC(=O)[C@H](C)NC(=O)[C@H](CC(=O)O)NC(=O)CNC(=O)[C@H](CCCNC(=N)N)NC(=O)[C@@H]2CCCN2C1=O [Cyclic peptide 79, KKKA-(Hcy)-IPRGDAFR(Dab(acetyl))A] (H-KKKA[hCys]IPRGDAFR[Dab]A-OH; linker 5-14 via X2) | A (The residual rate of the cyclic peptide is 70% or more.) | 0.05 to 0.1 |
| CC[C@H](C)[C@@H]1NC(=O)[C@@H](NC(=O)[C@H](CCCCN)NC(=O)[C@H](CCCCN)NC(=O)[C@@H](N)CCCCN)CCSCC(=O)NCC[C@@H](C(=O)O)NC(=O)[C@H](Cc2ccccc2)NC(=O)[C@H]([C@@H](C)O)NC(=O)[C@H](CC(=O)O)NC(=O)CNC(=O)[C@H](CCCNC(=N)N)NC(=O)[C@@H]2CCCN2C1=O [Cyclic peptide 63, KKK-(Hcy)-IPRGDTF(Dab(acetyl))] (H-KKK[hCys]IPRGDTF[Dab]-OH; linker 4-12 via X2) | A (The residual rate of the cyclic peptide is 70% or more.) | < 0.05 |
| CC[C@H](C)[C@@H]1NC(=O)[C@H](C)NC(=O)[C@@H](NC(=O)[C@H](CCCCN)NC(=O)[C@H](CCCCN)NC(=O)[C@@H](N)CCCCN)CCSCC(=O)NCC[C@@H](C(=O)N[C@@H](C)C(=O)O)NC(=O)[C@H](C)NC(=O)[C@H](CCCNC(=N)N)NC(=O)[C@H](Cc2ccccc2)NC(=O)[C@H](CC(N)=O)NC(=O)[C@H](CC(=O)O)NC(=O)CNC(=O)[C@H](CCCNC(=N)N)NC(=O)[C@@H]2CCCN2C1=O [Cyclic peptide 17, KKK-(Hcy)-AIPRGDNFRA(Dab(acetyl))A] (H-KKK[hCys]AIPRGDNFRA[Dab]A-OH; linker 4-15 via X2) | A (The residual rate of the cyclic peptide is 70% or more.) | 0.05 to 0.1 |
